Measurements reported in PubChem BioAssay (NCI).
Several values for one entry are separate records, joined by “and”; a condition that tells them apart may be missing. Equal values may be shown once.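 Five compound concentrations were applied to cells in 96-well plates for 48 hours; endpoints were derived by simple linear interpolation of the resulting dose-response curve. GI50: concentration for 50% inhibition of growth. At the TGI there is no net growth.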

Assays:
Assay in all cases: growth of human tumour cells (NCI), 48 h
DLD-1 colon = system: DLD-1 colon
DMS 273 small cell lung = system: DMS 273 small cell lung
LXFL 529 NSCLC = system: LXFL 529 NSCLC
SNB-78 CNS = system: SNB-78 CNS
XF 498 CNS = system: XF 498 CNS
HS 578T breast = system: HS 578T breast
MCF7 breast = system: MCF7 breast
MDA-MB-435 = system: MDA-MB-435
PC-3 prostate = system: PC-3 prostate
NCI/ADR-RES ovarian = system: NCI/ADR-RES ovarian

Structure (SMILES)	TGI (DLD-1 colon)	TGI (DMS 273 small cell lung) [µM]	TGI (LXFL 529 NSCLC) [µM]	TGI (SNB-78 CNS) [µM]	TGI (XF 498 CNS) [µM]	further results
CC(=O)OC1(C#N)CC2OC1C1N=NN(C(=O)OC(C)(C)C)C21 (configuration not stated)	> 31.6 µM	> 100	> 100	> 77	> 100	
COc1ccc2c(c1OC)C(C=C(c1ccccc1)c1ccccc1)CN(C)C2 (configuration not stated)	76.8 µM	34.9	34.7	> 100		
CCN(CC)CCC(=O)N1C/C(=C/c2ccccc2)C(=O)/C(=C\c2ccccc2)C1	2.82 µM	3.15	3.27		7.57	TGI (HS 578T breast): 2.21 µM; TGI (MCF7 breast): 1.69 µM; TGI (MDA-MB-435): 5.5 µM; TGI (PC-3 prostate): 2.9 µM
CSC1SCC2C(=O)N(C)C(C(C)C)C(=O)OCC(NC(=O)c3cnc4ccccc4n3)C(=O)NC(C)C(=O)N(C)C1C(=O)N(C)C(C(C)C)C(=O)OCC(NC(=O)c1cnc3ccccc3n1)C(=O)NC(C)C(=O)N2C (configuration not stated)	1.08 µM and 5.93 µM				5.67e-05	GI50 (DLD-1 colon): 1.84e-05 µM; GI50 (DMS 273 small cell lung): 4e-05 µM; GI50 (HS 578T breast): < 0.001 µM; TGI (HS 578T breast): 0.00282 µM and 0.00359 µM; GI50 (MCF7 breast): < 0.001 µM; GI50 (NCI/ADR-RES ovarian): 0.0238 µM; TGI (NCI/ADR-RES ovarian): 0.222 µM and 1.16 µM and 1.41 µM; TGI (PC-3 prostate): 0.0132 µM and 0.0224 µM; GI50 (SNB-78 CNS): 8.96e-07 µM; GI50 (XF 498 CNS): 3.06e-05 µM
Nc1nc(CC2(O)CCCCC2)cc(-c2ccccc2)n1	> 100 µM	> 66	> 100	> 100		
Cc1ccc(-c2cc(=O)c3cc(C)c(C)c(C(=O)O)c3o2)cc1[N+](=O)[O-]	> 100 µM	> 100	> 100	> 100		
C/C(=N\NS(=O)(=O)c1c(C)cc(C)cc1C)c1ccc[n+]([O-])n1	21 µM	34.8	23.4	68.3		
CCC(C)(C)NS(=O)(=O)c1ccccc1	> 100 µM	> 100	> 100	> 100	> 100	
CC(C)C1NC(=O)[C@H](C)OC(=O)[C@@H](C(C)C)NC(=O)[C@@H](C)OC(=O)C(C(C)C)NC(=O)[C@H](C)OC1=O (some centres not stated)	> 100 µM	> 100	> 100	> 100	> 100	
CC(=O)Oc1cc(Cl)c(OC(C)=O)c2c(OC(C)=O)c(C)c(O[Si](C)(C)C(C)(C)C)cc12	3.92 µM	20		9.82	32.8	
N/C(=N\N=C\c1ccc(O)c(O)c1)NO	> 100 µM	> 100	> 100	> 100	> 100	
CC(C)c1cc(C(=O)[O-])c(O)c(C(C)C)c1.CC(C)c1cc(C(=O)[O-])c(O)c(C(C)C)c1.CC(C)c1cc(C(=O)[O-])c(O)c(C(C)C)c1.CC(C)c1cc(C(=O)[O-])c(O)c(C(C)C)c1.CC(C)c1cc(C(=O)[O-])c(O)c(C(C)C)c1.CC(C)c1cc(C(=O)[O-])c(O)c(C(C)C)c1.[Cu+2].[Mn+2].[Mn+2]	35.9 µM	> 100	46.3	> 100	71.5	GI50 (DLD-1 colon): 17.8 µM; GI50 (DMS 273 small cell lung): 22.4 µM; GI50 (LXFL 529 NSCLC): 19.6 µM; GI50 (SNB-78 CNS): 37 µM; GI50 (XF 498 CNS): 30.2 µM
O=C(COC(=O)c1cccc2c(=O)c3ccccc3[nH]c12)Nc1ccc(S(=O)(=O)Nc2ncccn2)cc1	> 100 µM	> 100	> 100	74.4	> 100	
CC(CCC(=O)O)c1ccc(Br)cc1 (configuration not stated)	> 100 µM	> 100	> 100	> 100		
COc1c(Cl)[c]([Hg][O]C(C)=O)c(NCC(C)=O)c(OC)[c]1[Hg][O]C(C)=O	26.8 µM		3.68	43.2		GI50 (DLD-1 colon): 12.2 µM; GI50 (LXFL 529 NSCLC): 1.06 µM; GI50 (SNB-78 CNS): 15.9 µM
COc1cc(/C=C2\Cc3ccccc3C2=O)cc(OC)c1OC	> 100 µM	> 100	> 100	> 100	> 100	
COc1ccc(/C=C2\CCc3ccccc3C2=O)cc1OC	56.4 µM		> 100	> 100	56.5	
CCOc1ccc(N=Cc2ccc3ccccc3n2)cc1	> 100 µM	> 100	> 100	> 100	> 100	

Structure (SMILES)	TGI (DLD-1 colon)	TGI (DMS 273 small cell lung) [µM]	TGI (LXFL 529 NSCLC) [µM]	TGI (SNB-78 CNS) [µM]	TGI (XF 498 CNS) [µM]	further results
CC(C)=CCC/C(C)=C/CC/C(C)=C/C1CCC(=O)C1(C)C (configuration not stated)	32.6 µM		31.1	53.4	32.3	
CC1(C)Oc2ccccc2[N+]([O-])=C1c1ccccc1	> 100 µM	> 100	> 100	> 100		
OCCCCCNc1ccnc2cc(Cl)ccc12	> 100 µM	> 100	> 100	> 100	> 100	
O=C(CC1SC(=Nc2ccccc2Cl)NC1=O)Nc1ccc(Cl)cc1 (configuration not stated)	> 100 µM	> 100	> 100	> 100		
Cc1nc(-n2nc(-c3ccccc3)cc2-c2ccccc2)sc1C(=O)/C=C/c1ccc(Cl)cc1	26.8 µM	> 100		> 100		
CN=C(N)NC	> 100 µM	> 100	> 100	> 100	> 100	
[N-]=[N+]=NC1C2CC3CC(C2)CC1C3 (configuration not stated)		> 100	> 100	> 100		
CCN(CC)/[N+]([O-])=N/OCC(C)O (configuration not stated)		> 100		> 100	> 100	
Fc1ccc2c(c1)cc1ccc3cccc4ccc2c1c34	> 100 µM	> 100	> 100	> 100	> 100	
CCCCCN(CCCCC)C(=O)[C@H](CCC(=O)OCc1ccccc1)NC(=O)c1cc2ccccc2[nH]1	> 100 µM	> 100	> 100	> 100		
COC(=O)c1ccc(/C=C/S(=O)(=O)c2ccccc2)cc1	> 100 µM	> 100	> 100	> 100	> 100	
Cn1cc2ccccc2c1-c1nc(F)nc(Nc2ccc(N)cc2)n1	34.9 µM	25.6	30.9	77.7	30	
C/C=C(\C)C(=O)N1c2ccccc2CC1c1c(C)[nH]c2ccccc12 (configuration not stated)	> 100 µM	> 100	> 100	> 100		
CCOc1ncnc2ccc(Cl)c(I)c12	> 100 µM	> 100	> 100		> 100	
CC(C)(C)C1CCC(=O)C(C(O)CC2CC(=O)N(c3ccccc3)C(=O)C2)C1 (configuration not stated)	> 100 µM	> 100	> 100	> 100	> 100	
COC(=O)C1=C(O)c2cc3c(cc2[C@H](c2cc(OC)c(OC)c(OC)c2)C1)OCO3	> 100 µM	> 100	> 100	> 100	> 100	
CCOC(=O)NC(=O)c1cn(C2OC(COC(=O)CCCCCCCCC(=O)OCC3OC(n4cc(C(=O)NC(=O)OCC)c(=O)[nH]c4=O)C4OC(C)(C)OC34)C3OC(C)(C)OC32)c(=O)[nH]c1=O (configuration not stated)	> 100 µM	> 100	> 100	> 100	> 100	
